In general, IC50 refers to the concentration at which inhibition is half-maximal.

SMILES strings stand for the structures. Bounds are passed on as bounds.

Assay [1] deals with T1, PI3K delta (Homo sapiens, UniProt O00329).
T1 construct: for the full-length p110-d subunit are generated and fused by overlapping PCR; p85(iSH2) fusion partner (see partner chain) (N); His tag (C); made in house; host or cells: baculovirus; Tn5 (Trichoplusia ni) or TiniPro insect cells
Briefly: PI3K delta kinase assay (Kinase-Glo luminescence). It is filed as biochemical. The method in brief: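 Kinase-Glo luminescence read-out of ATP remaining after 60 min at RT. Enzyme: 10 nM BV1060 (p85 iSH2–p110δ fusion, His-tagged); substrate 10 μg/mL PI, ATP 1 μM final; Tris pH 7.5 buffer with MgCl2, NaCl, CHAPS, DTT. IC50 from 4-parameter logistic fit over 8 concentrations.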

The subject of assay [2] is PKB Ser473 phosphorylation in Rat1-myr-HA-p110 beta cells. As to the kind of experiment: Reverse protein array assay, PKB Ser473 phosphorylation in Rat1-myr-p110 beta cells. It is filed as cell-based. Conditions: 0.5 h, pAkt Ser473, 30 minutes incubation, read-out: p-PKB IC50. The method in brief:
(§1)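 After at least 20 h of culture, the p110 isoform-transfected Rat1 lines receive compound in an 8-step dilution series, keeping DMSO at 0.2%, for 30 minutes. Cells are then lysed and lysates arrayed on chips for fluorescence detection of Ser473-phosphorylated PKB.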

Assay [3] has as its system PKB Ser473 phosphorylation in Rat1-myr-HA-p110 delta cells. As to the kind of experiment: Reverse protein array assay, PKB Ser473 phosphorylation in Rat1-myr-p110 delta cells. It is filed as cell-based. Conditions: read-out: p-PKB IC50. The method in brief:
as §1

For assay [4], the system named is S6 Ribosomal Protein phosphorylation Ser235/236 in TSC1 null mouse embryo fibroblast (MEF) cells. As to the kind of experiment: Reverse protein array assay, S6 Ribosomal Protein phosphorylation Ser235/236 in TSC1 null MEF cells. It is filed as cell-based. Conditions: 1 h, pS6 ribosomal protein Ser235/236, 60 minutes incubation, read-out: p-S6 IC50. The method in brief: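 TSC1−/− MEFs, seeded and held ≥20 h at 37 °C/5% CO2, were exposed to 8-step serial compound dilutions (0.02% DMSO final; DMSO vehicle control) for 60 min at 37 °C. Cells were then lysed on ice for 10 min and lysates spotted onto reverse protein array chips.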

T1 sequence (O00329 with tags, fused parts or gaps limits assumed): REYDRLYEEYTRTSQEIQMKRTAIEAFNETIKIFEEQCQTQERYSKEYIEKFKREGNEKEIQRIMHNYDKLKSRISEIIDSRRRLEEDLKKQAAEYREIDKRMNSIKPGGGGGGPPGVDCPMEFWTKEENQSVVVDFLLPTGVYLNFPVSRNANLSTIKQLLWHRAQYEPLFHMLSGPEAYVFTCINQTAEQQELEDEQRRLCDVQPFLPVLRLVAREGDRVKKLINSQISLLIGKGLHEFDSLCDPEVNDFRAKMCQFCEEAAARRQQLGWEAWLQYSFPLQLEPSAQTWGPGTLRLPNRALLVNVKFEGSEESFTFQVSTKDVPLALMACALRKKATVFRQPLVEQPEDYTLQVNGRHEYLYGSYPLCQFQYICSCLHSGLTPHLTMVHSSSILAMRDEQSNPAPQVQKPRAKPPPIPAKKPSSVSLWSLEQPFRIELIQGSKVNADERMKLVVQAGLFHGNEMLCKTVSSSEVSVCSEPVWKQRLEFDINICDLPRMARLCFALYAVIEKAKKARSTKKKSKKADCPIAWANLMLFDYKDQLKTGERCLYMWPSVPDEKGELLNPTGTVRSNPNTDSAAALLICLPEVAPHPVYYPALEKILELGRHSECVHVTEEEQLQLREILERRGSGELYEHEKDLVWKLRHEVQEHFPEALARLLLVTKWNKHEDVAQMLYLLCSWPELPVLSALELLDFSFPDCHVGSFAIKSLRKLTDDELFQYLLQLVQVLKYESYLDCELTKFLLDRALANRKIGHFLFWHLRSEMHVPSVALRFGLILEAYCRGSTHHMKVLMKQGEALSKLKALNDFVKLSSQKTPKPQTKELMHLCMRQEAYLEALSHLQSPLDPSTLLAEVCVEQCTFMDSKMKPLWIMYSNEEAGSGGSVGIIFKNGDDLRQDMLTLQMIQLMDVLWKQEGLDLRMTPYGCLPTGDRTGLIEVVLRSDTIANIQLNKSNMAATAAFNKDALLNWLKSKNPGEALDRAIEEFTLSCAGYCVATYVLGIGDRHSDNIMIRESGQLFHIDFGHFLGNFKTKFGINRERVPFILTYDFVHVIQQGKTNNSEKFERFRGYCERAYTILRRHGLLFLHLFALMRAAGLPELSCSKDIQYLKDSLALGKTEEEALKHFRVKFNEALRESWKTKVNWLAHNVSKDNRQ

Consider `COc1ccc(-c2ccc3ncc4c(c3c2)n(-c2c(C)nn(C)c2C)c(=O)n4C)cn1` [Example 2.4, 8-(6-Methoxy-pyridin-3-yl)-3-methyl-1-(1,3,5-trimethyl-1H-pyrazol-4-yl)-1,3-dihydro-imidazo[4,5-c]quinolin-2-one], for which the IC50 in assay [1] is 0.033 µM; in assay [2] it was 0.386 µM; in assay [3], 0.882 µM.
On to `CCOc1ccc(-c2ccc3ncc4c(c3c2)n(-c2cn(C)nc2C)c(=O)n4C)cn1` [Example 3.1, 1-(1,3-Dimethyl-1H-pyrazol-4-yl)-8-(6-ethoxy-pyridin-3-yl)-3-methyl-1,3-dihydro-imidazo[4,5-c]quinolin-2-one], for which the IC50 in assay [4] turned out to be 0.04 µM; in assay [1] it was 0.037 µM; in assay [2], 0.02 µM; in assay [3] it was 0.042 µM.
`CCOc1ccc(-c2ccc3ncc4c(c3c2)n(-c2cn(CC(=O)N3CCOCC3)nc2C)c(=O)n4C)cn1` [Example 3.10, 8-(6-Ethoxy-pyridin-3-yl)-3-methyl-1-[3-methyl-1-(2-morpholin-4-yl-2-oxo-ethyl)-1H-pyrazol-4-yl]-1,3-dihydro-imidazo[4,5-c]quinolin-2-one]: the IC50 was determined as 0.01 µM in assay [4], 0.431 µM in assay [1], 0.07 µM in assay [2] and 0.084 µM in assay [3].
For the molecule `CCOc1ccc(-c2ccc3ncc4c(c3c2)n(-c2c(C)nn(CC(=O)N(C)C)c2C)c(=O)n4C)cn1` [Example 3.12, 2-{4-[8-(6-Ethoxy-pyridin-3-yl)-3-methyl-2-oxo-2,3-dihydro-imidazo[4,5-c]quinolin-1-yl]-3,5-dimethyl-pyrazol-1-yl}-N,N-dimethyl-acetamide], the IC50 in assay [4] is 0.175 µM; in assay [1] it was 0.721 µM; in assay [2], 0.166 µM; in assay [3], 0.211 µM.
The matching figures for `CCn1cc(-n2c(=O)n(C)c3cnc4ccc(-c5ccc(N(C)C)nc5)cc4c32)c(C)n1` [Example 4.2, 8-(6-Dimethylamino-pyridin-3-yl)-1-(1-ethyl-3-methyl-1H-pyrazol-4-yl)-3-methyl-1,3-dihydro-imidazo[4,5-c]quinolin-2-one]: 0.007 µM, 0.006 µM, 0.019 µM and 0.044 µM.
In the case of `Cc1nn(C)c(C)c1-n1c(=O)n(C)c2cnc3ccc(-c4ccc(N(C)C)nc4)cc3c21` [Example 4.3, 8-(6-Dimethylamino-pyridin-3-yl)-3-methyl-1-(1,3,5-trimethyl-1H-pyrazol-4-yl)-1,3-dihydro-imidazo[4,5-c]quinolin-2-one], the figures for the IC50 in assay [1], in assay [2] and in assay [3] were 0.098 µM, 0.615 µM and 0.787 µM, respectively.
For `Cc1nn(C(C)C)cc1-n1c(=O)n(C)c2cnc3ccc(-c4ccc(N5CCC5)nc4)cc3c21` [Example 5.2, 8-(6-Azetidin-1-yl-pyridin-3-yl)-1-(1-isopropyl-3-methyl-1H-pyrazol-4-yl)-3-methyl-1,3-dihydro-imidazo[4,5-c]quinolin-2-one], the IC50 in assay [4] worked out at 0.005 µM; in assay [1], 0.053 µM; in assay [2] it was 0.022 µM; in assay [3], 0.027 µM.
Take `Cc1nn(C)cc1-n1c(=O)n(C)c2cnc3ccc(-c4cnc(N(C)C)nc4)cc3c21` [Example 6.2, 8-(2-Dimethylamino-pyrimidin-5-yl)-1-(1,3-dimethyl-1H-pyrazol-4-yl)-3-methyl-1,3-dihydro-imidazo[4,5-c]quinolin-2-one]: the IC50 was determined as 0.008 µM in assay [4], 0.032 µM in assay [1], 0.047 µM in assay [2] and 0.076 µM in assay [3].
As for `Cc1ccc(-c2ccc3ncc4c(c3c2)n(-c2cn(C)nc2C)c(=O)n4C)cn1` [Example 7.2, 1-(1,3-Dimethyl-1H-pyrazol-4-yl)-3-methyl-8-(6-methyl-pyridin-3-yl)-1,3-dihydro-imidazo[4,5-c]quinolin-2-one], the IC50 was found to be 0.0135 µM in assay [4], 0.013 µM in assay [1], 0.035 µM in assay [2] and 0.028 µM in assay [3].
On to `Cc1cc(-n2c(=O)n(C)c3cnc4ccc(-c5ccc(C(F)(F)F)nc5)cc4c32)n(C)n1` [Example 8.2, 1-(2,5-Dimethyl-2H-pyrazol-3-yl)-3-methyl-8-(6-trifluoromethyl-pyridin-3-yl)-1,3-dihydro-imidazo[4,5-c]quinolin-2-one], for which the IC50 was 0.12 µM in assay [1], 0.326 µM in assay [2] and 0.412 µM in assay [3].
`COc1cncc(-c2ccc3ncc4c(c3c2)n(-c2cn(C)nc2C)c(=O)n4C)c1` [Example 12, 1-(1,3-Dimethyl-1H-pyrazol-4-yl)-8-(5-methoxy-pyridin-3-yl)-3-methyl-1,3-dihydro-imidazo[4,5-c]quinolin-2-one]: the IC50 in assay [4] was 0.007 µM; in assay [1] it was 0.031 µM; in assay [2], 0.038 µM; in assay [3] it was 0.079 µM.
In the same order, the values of `CNC(=O)c1ccc(-c2ccc3ncc4c(c3c2)n(-c2cn(C)nc2C)c(=O)n4C)cn1` [Example 15.1, 5-[1-(1,3-Dimethyl-1H-pyrazol-4-yl)-3-methyl-2-oxo-2,3-dihydro-1H-imidazo[4,5-c]quinolin-8-yl]-pyridine-2-carboxylic acid methylamide] are 0.011 µM, 0.257 µM, 0.021 µM and 0.091 µM.
The matching figures for `Cc1nn(C(C)C)cc1-n1c(=O)n(C)c2cnc3ccc(-c4ccc(CO)nc4)cc3c21` [Example 16.3, 8-(6-hydroxymethyl-pyridin-3-yl)-1-(1-isopropyl-3-methyl-1H-pyrazol-4-yl)-3-methyl-1,3-dihydro-imidazo[4,5-c]quinolin-2-one]: 0.061 µM, 0.027 µM, 0.039 µM and 0.125 µM.
In the same order, the values of `CCn1cc(-n2c(=O)n(C)c3cnc4ccc(-c5cnc(OC)nc5)cc4c32)c(C)n1` [Example 17.1, 1-(1-Ethyl-3-methyl-1H-pyrazol-4-yl)-8-(2-methoxy-pyrimidin-5-yl)-3-methyl-1,3-dihydro-imidazo[4,5-c]quinolin-2-one] are 0.087 µM, 0.02 µM, 0.057 µM and 0.103 µM.
As for `COc1ncc(-c2ccc3ncc4c(c3c2)n(-c2cn(C)nc2C)c(=O)n4C)cn1` [Example 17.2, 1-(1,3-Dimethyl-1H-pyrazol-4-yl)-8-(2-methoxy-pyrimidin-5-yl)-3-methyl-1,3-dihydro-imidazo[4,5-c]quinolin-2-one], the concentration for half-maximal inhibition (IC50) came to 0.033 µM in assay [4], 0.038 µM in assay [1], 0.04 µM in assay [2] and 0.058 µM in assay [3].
On to `COc1ncc(-c2ccc3ncc4c(c3c2)n(-c2cn(C)nc2Cl)c(=O)n4C)cn1` [Example 17.3, 1-(3-Chloro-1-methyl-1H-pyrazol-4-yl)-8-(2-methoxy-pyrimidin-5-yl)-3-methyl-1,3-dihydro-imidazo[4,5-c]quinolin-2-one], for which the IC50 in assay [4] is 0.003 µM; in assay [1], 0.005 µM; in assay [2], 0.022 µM; in assay [3], 0.028 µM.
Take `CCOc1ccc(-c2ccc3ncc4c(c3c2)n(-c2c(C)nn(C)c2C)c(=O)n4C)cc1OC` [Example 29.2, 8-(4-Ethoxy-3-methoxy-phenyl)-3-methyl-1-(1,3,5-trimethyl-1H-pyrazol-4-yl)-1,3-dihydro-midazo[4,5-c]quinolin-2-one]: the values for the IC50 in assay [1], in assay [2] and in assay [3] were 0.056 µM, 0.143 µM and 0.234 µM, respectively.
Regarding `CCOc1cncc(-c2ccc3ncc4c(c3c2)n(-c2c(C)cnn2C)c(=O)n4C)c1` [Example 56.5, 1-(2,4-Dimethyl-2H-pyrazol-3-yl)-8-(5-ethoxy-pyridin-3-yl)-3-methyl-1,3-dihydro-imidazo[4,5-c]quinolin-2-one], the values for the 50% inhibitory concentration (IC50) in assay [4] and in assay [1] were 0.13 µM and 0.196 µM, respectively.
On to `COCCn1c(=O)n(C)c2ncc(-c3ccc4ncc5c(c4c3)n(-c3cn(C)nc3C)c(=O)n5C)cc21` [Example 69, 1-(1,3-Dimethyl-1H-pyrazol-4-yl)-8-[1-(2-methoxy-ethyl)-3-methyl-2-oxo-2,3-dihydro-1H-imidazo[4,5-b]pyridin-6-yl]-3-methyl-1,3-dihydro-imidazo[4,5-c]quinolin-2-one], for which the IC50 was found to be 0.036 µM in assay [1] and 0.81 µM in assay [3].
Turning to `CCc1ncc(-c2ccc3ncc4c(c3c2)n(-c2cn(C)nc2C)c(=O)n4C)cc1NC(C)C` [Example 162, 1-(1,3-Dimethyl-1H-pyrazol-4-yl)-8-(6-ethyl-5-isopropylamino-pyridin-3-yl)-3-methyl-1,3-dihydro-imidazo[4,5-c]quinolin-2-one], the figures for the IC50 in assay [1] and in assay [2] were 0.01 µM and < 0.005 µM, respectively.
Take `Cc1nn(CCO)cc1-n1c(=O)n(C)c2cnc3ccc(-c4cncc(N5CCOCC5)c4)cc3c21` [Example 175.3, 1-[1-(2-Hydroxy-ethyl)-3-methyl-1H-pyrazol-4-yl]-3-methyl-8-(5-morpholin-4-yl-pyridin-3-yl)-1,3-dihydro-imidazo[4,5-c]quinolin-2-one]: the IC50 in assay [4] was 0.151 µM; in assay [1], 0.126 µM; in assay [2], 0.692 µM.

The values are drawn from patent publication US20140005163A1 (NOVARTIS AG, priority 2010, published 2014).
